Measurements as given in patent US20240358829A1, “Lymphocyte Population and Methods for Producing Same” (AVM Biotechnology, LLC, priority 2021, published 2024).
Entries after “also recorded” stand apart in the source; their conditions may differ. Read-outs that look alike come from different tables or passages of the source.

Columns and labels:
[1] = tested on: AVM-NKT cells (CD3highCD49b+); type: in vivo, mouse; conditions: for induction of AVM-NKT cells by comparators: naïve mice, standard Cy/Flu chemotherapy or methylprednisone
Description: Mice were anesthetized with isoflurane gas.

[2] = tested on: human AVM-NKT cells (human CD56+ cells); assay: Humanized mice orally dosed with DSP (Example 8); type: in vivo, mouse; conditions: oral HED 18-45 mg/kg, 24-48 hours later
Protocol: BRGSF humanized mice on a Balb/c background from Genoway generated by transplanting human umbilical cord blood CD34+ stem cells into irradiated mice that lack mouse B and T lymphocytes and NK cells but have a functional mouse complement system are orally dosed with HED 18-45 mg/kg DSP.
NCG mice are humanized by adoptive transfer using human umbilical cord blood-derived CD34+ stem cells, following myeloablation treatment. NCG mice from 4 donors (n=2 per donor) are orally dosed with HED 18-45 mg/kg DSP.
huNOG EXL from Taconic have an average of 54% of CD45 cells positive for human CD45. Six huNOG EXL humanized immune system mice from 3 donors (n=2 per donor) are orally dosed with HED 18-45 mg/kg DSP.

[3] = tested on: peripheral blood lymphocytes; assay: Lymphodepletion study in naïve mice (complete blood count, flow cytometry)
Protocol: For initial lymphodepletion studies, naïve C57Bl/6 mice were treated with 18 mg/kg HED DP by oral gavage. Male C57BL/6 mice were obtained from Taconic Bioscience (Germantown, NY) and acclimated to laboratory conditions for at least one week. […] Each dosed timepoint group was accompanied by a placebo group of the same age and condition according to Table 3. […] When mice reached study timepoint, they were euthanized as follows. Mice were anesthetized with isoflurane gas. Once anesthetized, blood was drawn via cardiac puncture and place immediately in heparin-lined microtubes. 10 mL of 5 U/mL of Heparin/PBS was used for infused by slow push for retrograde perfusion via the abdominal aorta to flush out all remaining blood from the vasculature. Subsequently, 250 μL of blood was transferred to a lavender-topped EDTA-lined microtube and transported to by Lynette Brown at Flow Contract Site Labs (Bothell, WA) for analysis by flow cytometry. The remaining blood was sent to Phoenix Labs (Mukilteo, WA) for Complete Blood Counts and Clinical Chemistries

[4] = in vivo; cited from earlier work
[5] = tested on: mouse whole blood and splenocytes; assay: Ex vivo/in vitro dexamethasone concentration-response curve
A20 cells = A20 cells treated with high dose dexamethasone in vitro; type: cell-based, mouse; conditions: 72 hours after high dose dexamethasone treatment in vitro
R/R NHL = assay: AVM0703 R/R NHL clinical trial, clinical and PET/CT response, survival; type: in vivo, human; conditions: patient 108-004, 12 mg/kg; listed as DP
CD56+γδTCR+iTCR+ cells = assay: AVM0703 R/R NHL clinical trial, whole blood flow cytometry; type: in vivo, human; conditions: listed as DP
Protocol: FIG. 15. 101-001 size (FSC) and complexity (SSC) scattergram of AVM_NKT cells. […] Blood was stained with panel antibodies based for 15 minutes in the dark at Room Temperature. RBC lysis was performed by addition of 1 mL of 1×BD FACS Lysing Solution (BD Bioscience), diluted with MilliQ water, for 10 minutes in the dark at Room Temperature. Samples were washed with 2 mL 1×DPBS CMF (Gibco) and resuspended in 300 μL of 1×DPBS CMF before 5 μL of 7AAD (Biolegend) was added to each sample for live/dead cell determination and incubated for 5 minutes in the dark at Room Temperature. 250 μL of sample were taken up for acquisition on Macsquant 16 Flow Cytometer (Miltenyi, Serial #40150). Live white blood cells were gated for CD56+ cells co-expressing gamma delta TCR and the invariant TCR and labelled red in the forward versus side scattergram. Red-labelled cells fall within the forward versus side scattergrams where large granular cells such as neutrophils and large granular lymphocytes are known to fall.
For characterisation of the induced/mobilized population of NKT-like cells (AVM-NKT) in humans, whole blood from human subjects was drawn in K2 EDTA Vacutainer tube (367862, BD Biosciences, NJ) and shipped to AVM Biotechnology at room temperature. 100 μl of whole blood was stained with the following antibodies: CD45 AF700 (2D1), CD16 APC (3G8), INKT PECy7 (6B11), CD8 PE (SK1), CD14 FITC (M5E2), CD56 BV650 (5.1H11), γδTCR BV510 (B1), CD19 BV421 (HIB19), NKp44 APC (P44-8) (all from Biolegend, San Diego, CA) and CD3 APCVio770 (BW264/56), (Miltenyi Biotec, San Jose, CA), 7-AAD, (Biolegend, San Diego CA) was included to distinguish the live and dead cells.

A20 B cell lymphoma = conditions: 18 mg/kg HED
Protocol: FIG. 10B. […] Mice were inoculated with A20 lymphoma 2×10^6 cells in 100 μL of PBS mixed with 100 μL of chilled Matrigel into their flank. Three, 24 and 48 hours later mice were euthanized and tumors, blood, bone marrow and thymus were taken and made into single cell suspensions for flow cytometry detection of live A20 cells.

methylprednisone
induction of AVM-NKT cells by comparators [1]: not induced

C[C@@H]1C[C@H]2[C@@H]3CCC4=CC(=O)C=C[C@]4(C)[C@@]3(F)[C@@H](O)C[C@]2(C)[C@@]1(O)C(=O)COP(=O)(O)O [DSP, Dexamethasone sodium phosphate]
cell population corresponding to AVM-NKT cells ([2]; BRGSF humanized mice): can be observed
cells corresponding to AVM-NKT cells, % of total splenocytes ([2]; HuCD34-NCG mice): 0.2-3%
cells corresponding to AVM-NKT cells, % of total splenocytes ([2]; huNOG EXL mice): 0.2-3%

cyclophosphamide/fludarabine [Cy/Flu]
induction of AVM-NKT cells by comparators [1]: not induced
induction of AVM-NKT cells by comparators ([1]; listed as Cyclophosphamide/fludarabine): does not induce
Total NKT cell numbers ([3]; 13 mg/kg HED cyclophosphamide and 0.8 mg/kg HED fludarabine, 48 hours): no such increase

C[C@]12C=CC(=O)C=C1CC[C@@H]1[C@@H]2C(=O)C[C@@]2(C)[C@H]1CC[C@]2(O)C(=O)CO [prednisone]
biologic half-life [4]: about 20 hours

C[C@@H]1C[C@H]2[C@@H]3CCC4=CC(=O)C=C[C@]4(C)[C@@]3(F)[C@@H](O)C[C@]2(C)[C@@]1(O)C(=O)CO [dexamethasone base]
induction of AVM-NKT cells, dose escalation ([1]; 15 mg/kg HED): particularly robust production
induction of AVM-NKT cells, dose escalation ([1]; 6+6 mg/kg HED: 6 mg/kg at time 0 and 6 mg/kg 24 hours later): particularly robust production
induction of AVM-NKT cells, dose escalation ([1]; single dose between 6-12 mg/kg HED): can induce AVM-NKT cells
human equivalent dose giving an in vivo peak blood concentration of 100 uM [5]: ~2.8 mg/kg
response of RBCs ([5]; ex vivo, any concentration (data not shown)): no response
concentration above which apoptosis decreases (biphasic curve) ([5]; isolated mouse splenocytes and whole blood, 6 hours incubation): above 100 uM

C[C@@H]1C[C@H]2[C@@H]3CCC4=CC(=O)C=C[C@]4(C)[C@@]3(F)[C@@H](O)C[C@]2(C)[C@@]1(O)C(=O)CO [dexamethasone]
time to induction of AVM-NKT cells in the spleen ([1]; normal mice, after dexamethasone dosing): ≤ 48 h
apoptosis of A20 cells (A20 cells): about 30%
platelet numbers ([3]; 18 mg/kg HED DP, 18 mg/kg): spared; also recorded: does not affect
number of live hematopoietic stem cells ([3]; 18 mg/kg HED DP, 6 hours to 35 days, 18 mg/kg): spared or increased; also recorded: does not significantly alter
Basophils ([3]; high-dose dexamethasone): reduced only at the 6 hour time point
MSCs ([3]; high-dose dexamethasone): spared or increased
RBCs ([3]; high-dose dexamethasone): spared
eosinophils ([3]; high-dose dexamethasone): reduced only at the 24 and 48 hour time points

C[C@@H]1C[C@H]2[C@@H]3CCC4=CC(=O)C=C[C@]4(C)[C@@]3(F)[C@@H](O)C[C@]2(C)[C@@]1(O)C(=O)COP(=O)(O)O [dexamethasone phosphate, Dexamethasone phosphate, reference compound]
objective beneficial response (PET/CT, clinical chemistries, CBCs or clinical symptoms) (R/R NHL): did not have a clinical response
CD56+ γδTCR+ iTCR+ cells/uL (CD56+γδTCR+iTCR+ cells; patient 103-005, 9 mg/kg, 1 hour post-infusion): 22 cells/uL
CD56+γδTCR+invTCR+ cells in blood (CD56+γδTCR+iTCR+ cells; patient 108-004, 12 mg/kg, one hour, 3 days or 14 days after infusion (pre-infusion 0.09%, 4.6 cells/uL)): no evidence
time of maximal ablation of A20 lymphoma implanted in the flank (A20 B cell lymphoma): ≤ 3 h
time of maximal eradication of A20 metastasis to blood and thymus (A20 B cell lymphoma): 24 h
time of maximal eradication of A20 metastasis to bone marrow (A20 B cell lymphoma): 48 h
